# According to patent US6321750A, “Condom lubricants with zinc salts as anti-viral additives” (priority 1999, dated 2001):
# Read-outs that look alike come from different tables or passages of the source.
# Key:
# [1] = system: forearm; test: Irritation test on forearm / skin; type: in vivo, human; settings: in vivo
# Experimental: Zinc acetate was purchased from Pfaltz and Bauer (Waterbury, Connecticut). About 0.5 grams were mixed with several drops of distilled water at room temperature. […] The aqueous mixture was rubbed into an area about 3 cm in diameter on the forearm of […] and caused no irritation. Subsequently, about 0.5 grams of the salt were dissolved in a few drops of distilled water, then 10 ml K-Y Lubricating Jelly (sold by Johnson and Johnson, New Brunswick, N.J.) was added to form a gel mixture containing about 5% zinc acetate (w/v). This commercially available mixture contains purified water, hydroxyethyl-cellulose as a thickening agent, glycerin as a lubricant, glucono-delta-lactate to prevent crystallization, chlorhexidine gluconate as a preservative, and sodium hydroxide to reduce the acidity.
# [2] = cited from earlier work; for ionization rate: in aqueous solution; for Reported pK values: values below 2 refer to release of a single carboxy anion
# [3] = system: genitals (both persons, during intercourse); test: Irritation test of lubricant during intercourse / human volunteers; type: in vivo; settings: human, in vivo
# Text: Subsequently, the gel formulation was applied topically and used as a sexual lubricant during intercourse. Both people wiped off the excess with a tissue after intercourse, but neither person showered or washed off the lubricant until the following day. It caused no irritation to either person.
# [4] = Acidity tests: pH of 5% w/v zinc salt solutions; settings: for pH of solution (rounded) / pH of solution: 5% w/v in distilled deionized water; for pH of solution: 0.05 subtracted from meter reading, approximately accurate
# [5] = system: several cell lines
# [6] = system: male genitals; test: Irritation test on male genitals / urethra; settings: in vivo
# Experimental: In all examples, the test subjects were a monogamous married couple, free of genital herpes and all other known sexually transmitted viruses.
# The mixture of zinc acetate in K-Y Lubricating Jelly was tested on the male genitals, passively at first and then with active rubbing.
# About 0.5 grams were dissolved in several drops of distilled water and tested on the forearm and genitals.
# [7] = system: vagina; test: Irritation test in shallow region of the vagina (volunteer); type: in vivo, human; settings: human, in vivo
# [8] = system: genitals (both persons, during intercourse); settings: cited from earlier work
# [9] = system: H-9 lymphocytes; test: Toxicity to lymphocytes; type: cell-based; settings: at the concentrations of interest
# Experimental: In a first set of tests, 20 mg of zinc acetate powder (ZnAc, MW 183.4) was mixed in 1 ml RPMI cell culture medium (Whittaker Corp.). This 2% (w/v) salt mixture contained 7 mg/ml elemental Zn. […] Therefore, a small quantity of HCl was added until the mixture became clear; the pH was about 5.5. The Zn concentration was reduced by half (and the pH was raised somewhat) when an equal volume (1 ml) of cell-free high-titer HIV-1 viral stock was added. The zinc/virus mixture was stirred and incubated for 2 hours at 37° C. (i.e., normal body temperature).
# Following this first incubation step, the zinc/virus mixtures were diluted at 1:10, 1:30, and 1:100 ratios using culture medium, and aliquots were added to equal volumes of culture media containing H-9 lymphocytes that had been pretreated overnight with 2 μg/ml Polybreen. The lymphocyte mixtures were incubated for three hours at 37° C.; zinc concentrations during this step were 180, 60, and 18 μg/ml for the 1:10, 1:30, and 1:100 dilutions.
# A 2 ml aliquot from each dilution was mixed with an equal volume of 3% ZnAc dissolved in sterile distilled water; after mixing, the zinc concentration was 5.3 mg/ml Zn. These mixtures were incubated for 2 hours, then diluted with culture medium at 1:30, 1:100, and 1:1000 to reduce the toxicity of the zinc to lymphocytes. Four ml of lymphocytes were mixed with 4 ml of each zinc/virus mixture. The zinc/virus/cell mixtures were incubated at 37° C. for 3 hours; zinc concentrations were 88, 27, and 2.7 μg/ml in the 30, 100, and 1000 dilutions.
# [10] = system: sperm cells; settings: undiluted semen; Eliasson 1971, Paz et al 1977; cited from earlier work
# [11] = system: herpes simplex virus (HSV); test: Herpes simplex virus plaque assay on CV-1 cells; settings: in vitro tests
# Experimental: The first step of this assay models what happens inside the vaginal cavity. In this part of the assay, the candidate anti-viral agent (such as a zinc salt) was mixed and incubated for a relatively brief period with HIV particles. […] In subsequent tests using herpes viruses (which are much easier to work with than HIV), a range of first-stage incubation times were tested, ranging from 2 hours to only 5 minutes.
# Susceptible lymphocyte cells were then added to this mixture, and a second incubation step was carried out for a number of days (20 days or more, when HIV was tested; 3 days, when herpes viruses were tested in plaque assays) to determine whether zinc-treated or untreated viruses would infect the lymphocytes.
# After those toxicity tests had been evaluated, the viral inhibition tests were done on CV-1 cells, an immortalized cell line originally from a monkey kidney, which is highly and reliably susceptible to herpes virus infection, and which is widely used in in vitro tests on herpes viruses.
# Tests were also carried out using a range of zinc salt concentrations, from 50 mM down to 5 mM, using constant 2 hour incubation periods.
compound,measurement,setting,value
[Cl-].[Cl-].[Zn+2] [Zinc chloride],"burning, forearm",[1],immediately caused a burning sensation
same,ionization rate,[2],~100%
same,irritation in initial tests,[3],significant irritation
O=C[O-].O=C[O-].[Zn+2] [Zinc formate],Reported pK values: pK1,[2]; in water,0.6
same,Reported pK values: pK2,[2]; in water,0.95
O=C(O)CO.O=C(O)CO.[Zn] [Zinc glycolate],Reported pK values,[2]; in water,1.92
CC(O)C(=O)[O-].CC(O)C(=O)[O-].[Zn+2] (stereo not shown) [Zinc lactate],pH of solution (rounded),[4],about 6.2
same,pH of solution,[4],6.16
same,MCC,[5],~200 mM
same,Reported pK values,[2]; in water,1.86
same,irritation during intercourse,[3],no irritation of any sort
CCC(=O)[O-].CCC(=O)[O-].[Zn+2] [Zinc propionate],"irritation, male genital skin",[6],no irritation
same,"irritation, male genitals",[6],did not cause any irritation
same,"irritation, urethra",[6],substantial irritation
same,"irritation, vagina",[7],vaginal irritation
same,"irritation, vagina / female genitals",[7],no irritation
same,burning and irritation to the skin,[1],substantial amount of burning and irritation to the skin
same,"irritation, forearm",[1],no irritation
same,Reported pK values,[2]; in water,1.01
same,irritation of gel / genital lubricant formulations,[3],did not cause any irritation
O=S(=O)([O-])[O-].[Zn+2] [Zinc sulfate],acidity relative to zinc acetate or lactate solution,[4]; 5% solutions,about 4 times
same,pH drop relative to zinc acetate or lactate solution,"[4]; 5% solutions, from 6.2 to 5.6",0.6
same,pH of solution (rounded),[4],about 5.6
same,pH of solution,[4],5.58
same,"irritation, male genital skin",[6],did not cause any irritation
same,"irritation, urethra",[6],did not cause any irritation
same,"irritation, person, passive test",[7],"tingling, burning sensation"
same,irritation (prior art / known),"[8]; human, in vivo",substantial burning and irritation in most people
same,"irritation, forearm",[1],did not cause any irritation
same,ionization rate,[2],~100%
same,irritation in initial tests,[3],significant irritation
same,"irritation, human volunteers",[3],no noticeable irritation
[Zn+2] [zinc],toxicity to lymphocytes,[9],toxic to lymphocytes
same,effect on physical irritation caused by nonoxynol,[3],can actually reduce the physical irritation that is caused by nonoxynol
same,effect on sperm respiratory activity and motility,[10],suppresses the respiratory activity and motility of sperm cells
Zinc butyrate,Reported pK values,[2]; in water,1.00
Zinc gluconate,anti-viral effect against herpes viruses,[11],clearly effective in preventing infection by herpes viruses
same,"irritation, male genitals",[6],no irritation
same,MCC,[5],~200 mM
same,"irritation, vagina / female genitals",[7],no irritation
same,"irritation, forearm",[1],no irritation
same,Reported pK values,[2]; in water,1.70
same,abrasion during intercourse,[3],no abrasion was noticeable
Zinc glycerate,Reported pK values,[2]; in water,1.80
nonoxynol,irritation (prior art / known),[8]; literature or general knowledge,cause irritation in many users
octoxynol,irritation (prior art / known),"[8]; human, in vivo",cause irritation in many users
